Experimental data: patent US4537924A, “Quadratic acid amide derivatives, their use as stabilizers, and synthetic resins treated therewith” (Chemische Werke Huels, AG, priority 1982, dated 1985)
Values after ≈ are worked out from the molar mass of the structure shown. Read-outs that look alike come from different tables or passages of the source.

Columns and labels:
[1] = Volatility of pure compound by thermogravimetric determination; format: physicochemical; details: heating-up rate 10° C./min; for Volatility: temperature at weight drop of 2%: weight drop 2%; for Volatility: temperature at weight drop of 50%: weight drop 50%; for Volatility: temperature at weight drop of 80%: weight drop 80%
Procedure: To test volatility, the quadratic acid bisamides or the synthetic resins treated therewith were subjected to thermogravimetric determination (cf. Tables 1 and 6). The heating-up rate was 10° C./min. A DuPont 950 Thermogravimetric Analyzer was applied.

[2] = Extraction of stabilizers from polyamide 12 with boiling organic solvents; format: physicochemical; details: 0.25% by weight stabilizer
Source text: (a) Polyamide 12 (Number Average Mol. Wt. 30,000: Producer: Chemische Werke Hus AG, D-4370 Marl)
In a pug mill, polyamide 12 granules were combined with quadratic acid bisamides, and the resultant mixture was homogenized in a twin screw extruder. The granulated material obtained in this way was then molded into panels having a thickness of 1 mm, and chips of 30×10 mm were then cut therefrom.
(§1) The solubility values in water and dilute acetic acid (Tables 2 and 3), as well as the extraction values (Tables 4 and 7) confirm the low migrating tendency of the compounds according to the present invention.

[3] = Light exposure test (buckling test) with stabilizers in polyamide 12
[4] = Volatility (sublimation) of stabilizers from polyether esters; format: physicochemical; details: from polyether ester; 195° C. and 0.1 mbar; 0.5% by weight
[5] = Solubility of pure compound in 10% acetic acid; format: physicochemical; details: 22° C.; for solubility: 10% acetic acid
Source text: as §1

[6] = Light exposure test (buckling test) with stabilizers in polypropylene
[7] = Extraction of stabilizers from polyether esters with boiling organic solvents; format: physicochemical; details: from polyether ester
Source text: (b) Polyether Esters (Number Average Mol. Wt. 25,000)
Into a polyether ester melt based on terephthalic acid, 1,4-butanediol, and polytetrahydrofuran, 0.5% by weight of the respective quadratic acid amide was introduced. After processing into granules, the latter were used to make press-molded panels of a thickness of 1 mm, from which chips were cut of 30×10 mm.
as §1

[8] = Solubility of pure compound in water; format: physicochemical
Source text: as §1

[9] = with costabilizer mixture (benzotriazole, hexamethylenediamine phenol, phosphite; 0.25% each), 0.25% by wt. stabilizer (for salts: refers to the bisamide)
[10] = without costabilizer, 0.25% by wt. stabilizer (for salts: refers to the bisamide on which the salt is based)

SMILES	Stabilizing effect in polyamide 12, light exposure to break [3, 9]	Stabilizing effect in polyamide 12, light exposure to break [3, 10]	solubility ([8]; 22° C.)	solubility ([8]; 100° C.)	further results
CC1(C)CC2(CC(C)(C)N1)OC1(CCCCCCCCCCC1)NC2=O [B, 2,2,4,4-tetramethyl-3,20-diaza-7-oxa-21-oxodispiro[5,1,11,2]heneicosane]	–	–	–	–	Volatility: temperature at weight drop of 2% [1]: 200 °C; Volatility: temperature at weight drop of 50% [1]: 280 °C; Volatility: temperature at weight drop of 80% [1]: 300 °C; Degree of extraction after 8 hour treatment ([2]; boiling chloroform): 97.2 % of Maximally Extractable Amo; Degree of extraction after 8 hour treatment ([2]; boiling methanol): 83.1 % of Maximally Extractable Amo
CCN(CC)c1c([O-])c(=[N+](CC)CC)c1=O [C, 1,3-Bis(diethylamino)cyclobutenediylium-2,4-diolate, reference compound]	511 h	460 h	–	–	–
CC1(C)CC(OC(=O)CCCCCCCCC(=O)OC2CC(C)(C)NC(C)(C)C2)CC(C)(C)N1 [Comparative Example A, sebacic acid di-4-hydroxy-2,2,6,6-tetramethylpiperidine ester]	–	–	–	–	Volatility: temperature at weight drop of 2% [1]: 220 °C; Volatility: temperature at weight drop of 50% [1]: 285 °C; Volatility: temperature at weight drop of 80% [1]: 300 °C; Degree of sublimation after 24-hour treatment [4]: 88 % of Maximally Sublimable Quan; solubility [5]: 402000 µg/mL (≈ 836000 µM); Stabilizing effect in polypropylene, light exposure to break ([6]; 0.2% by wt. stabilizer): 277 h; Degree of extraction after 8 hour treatment ([2]; boiling chloroform): 69.9 % of Maximally Extractable Amo; Degree of extraction after 8 hour treatment ([2]; boiling methanol): 68.7 % of Maximally Extractable Amo; Degree of extraction after 8-hour treatment ([7]; methanol (65° C.)): 60 % of Maximally Extractable Qua; Degree of extraction after 8-hour treatment ([7]; toluene (110° C.)): 53 % of Maximally Extractable Qua
C[C@@H]1CN(c2c([O-])c(=[N+]3C[C@@H](C)O[C@@H](C)C3)c2=O)C[C@H](C)O1 [E, 1,3-Bis(cis-2,6-dimethylmorpholino)cyclobutenediylium-2,4-diolate, reference compound]	473 h	432 h	–	–	–
CC1(C)CC(N=c2c(O)c(NC3CC(C)(C)NC(C)(C)C3)c2=O)CC(C)(C)N1 [Example 1, 1,3-Bis[2,2,6,6-tetramethyl-4-piperidylamino]cyclobutenediylium-2,4-diolate]	1,076 h	790 h	< 20 µg/mL	150 µg/mL (≈ 384 µM)	–
CC1(C)CC(N=c2c(O)c(NC3CC(C)(C)NC(C)(C)C3)c2=O)CC(C)(C)N1 [Example 1.1, 1,3-bis[2,2,6,6-tetramethyl-4-piperidylamino]cyclobutenediylium-2,4-diolate]	–	–	–	–	Solubility of pure compound in 10% acetic acid [5]: 4.6 g/100 g 10% HAc
CC1(C)CC(N=c2c(O)c(NC3CC(C)(C)NC(C)(C)C3)c2=O)CC(C)(C)N1 [Example 1.2, 1,3-bis[2,2,6,6-tetramethyl-4-piperidylamino]cyclobutenediylium-2,4-diolate]	1,120 h	780 h	–	–	Solubility of pure compound in 10% acetic acid [5]: 2.4 g/100 g 10% HAc
CC1(C)CC(N=c2c(O)c(NC3CC(C)(C)NC(C)(C)C3)c2=O)CC(C)(C)N1 [Example 1.3, 1,3-bis[2,2,6,6-tetramethyl-4-piperidylamino]cyclobutenediylium-2,4-diolate]	976 h	683 h	–	–	Solubility of pure compound in 10% acetic acid [5]: 5.0 g/100 g 10% HAc
CC1(C)CC(N=c2c(O)c(NC3CC(C)(C)NC(C)(C)C3)c2=O)CC(C)(C)N1 [Example 1.4, 1,3-bis[2,2,6,6-tetramethyl-4-piperidylamino]cyclobutenediylium-2,4-diolate]	–	–	–	–	Solubility of pure compound in 10% acetic acid [5]: < 0.1 g/100 g 10% HAc
CC1(C)CC(N=c2c(O)c(NC3CC(C)(C)NC(C)(C)C3)c2=O)CC(C)(C)N1 [Example 1.5, 1,3-bis[2,2,6,6-tetramethyl-4-piperidylamino]cyclobutenediylium-2,4-diolate]	1,121 h	720 h	–	–	Solubility of pure compound in 10% acetic acid [5]: 0.9 g/100 g 10% HAc
CCCCN(c1c([O-])c(=[N+](CCCC)C2CC(C)(C)NC(C)(C)C2)c1=O)C1CC(C)(C)NC(C)(C)C1 [Example 3, 1,3-Bis[N-n-butyl-N-(2,2,6,6-tetramethyl-4-piperidyl)amino]cyclobutenediylium-2,4-diolate]	–	–	< 100 µg/mL	800 µg/mL (≈ 1590 µM)	–
CC(C)CN(c1c([O-])c(=[N+](CC(C)C)C2CC(C)(C)NC(C)(C)C2)c1=O)C1CC(C)(C)NC(C)(C)C1 [Example 4, 1,3-Bis[N-isobutyl-N-(2,2,6,6-tetramethyl-4-piperidyl)amino]cyclobutenediylium-2,4-diolate]	–	–	< 100 µg/mL	700 µg/mL (≈ 1390 µM)	–
CCCCCCN(c1c([O-])c(=[N+](CCCCCC)C2CC(C)(C)NC(C)(C)C2)c1=O)C1CC(C)(C)NC(C)(C)C1 [Example 5, 1,3-Bis[N-n-hexyl-(2,2,6,6-tetramethyl-4-piperidyl)amino]cyclobutenediylium-2,4-diolate]	–	–	< 100 µg/mL	300 µg/mL (≈ 537 µM)	–
CCCCCCCCN(c1c([O-])c(=[N+](CCCCCCCC)C2CC(C)(C)NC(C)(C)C2)c1=O)C1CC(C)(C)NC(C)(C)C1 [Example 6, 1,3-Bis[N-n-octyl-N-(2,2,6,6-tetramethyl-4-piperidyl)amino]cyclobutenediylium-2,4-diolate]	–	–	< 100 µg/mL	200 µg/mL (≈ 325 µM)	–
CC1(C)CC(N(CCO)c2c([O-])c(=[N+](CCO)C3CC(C)(C)NC(C)(C)C3)c2=O)CC(C)(C)N1 [Example 7, 1,3-Bis[N-2-hydroxyethyl-N-(2,2,6,6-tetramethyl-4-piperidyl)amino]cyclobutenediylium-2,4-diolate]	–	–	–	–	Stabilizing effect in polypropylene, light exposure to break [6]: 375 h
CC1(C)CC(OCCCN=c2c(O)c(NCCCOC3CC(C)(C)NC(C)(C)C3)c2=O)CC(C)(C)N1 [Example 9, 1,3-Bis[2,2,6,6-tetramethyl-4-piperidyloxypropylamino]cyclobutenediylium-2,4-diolate]	1,135 h	820 h	2400 µg/mL (≈ 4740 µM)	9500 µg/mL (≈ 18700 µM)	–
CC(CO)N=c1c(O)c(NC(C)CO)c1=O (stereo not drawn) [F, 1,3-Bis[(2-hydroxy-1-methylethyl)amino]cyclobutenediylium-2,4-diolate, reference compound]	–	–	–	–	solubility [5]: 222000 µg/mL (≈ 973000 µM)
O=c1c(N2CCCCC2)c([O-])c1=[N+]1CCCCC1 [G, 1,3-Bispiperidinocyclobutenediylium-2,4-diolate, reference compound]	619 h	530 h	–	–	Stabilizing effect in polypropylene, light exposure to break ([6]; 0.2% by wt. stabilizer): 212 h
